Usually solubility stands for the concentration that dissolves in the medium under given conditions.

“Also recorded” adds a separate entry of the source.

The subject of one series is IL-6. Put plainly: Anti-inflammatory assay, IL-6 in LPS-stimulated THP-1 cells (CBA). The series is classed as cell-based, human. The following applies: 2 and 4 µg/mL, 24 h. The procedure:
For this assay, THP-1 (BCRJ cód. 0234) cells were cultured in Roswell Park Memorial Institute (RPMI-1640, Sigma-Aldrich; Saint Louis, MO, USA) media supplemented with 2 mM L-glutamine, 1 mM sodium pyruvate, 1.50 g/L of sodium bicarbonate, and 10% fetal bovine serum. For obtaining Macrophage-like cells, 250,000 cells per well were plated in a 24-well cell culture plate. A total of 20 ng/mL of Forbol 12-miristato-13-acetato (PMA) was added to each well, and the cells were incubated for 48 h at 37 °C with 5% CO2. After the 48 h, the wells were washed with 1X PBS, and fresh RPMI-1640 media was added. The cells were then incubated for 24 h at 37 °C and 5% CO2. For the cell’s stimulations, after the 24 h, the well was washed with PBS and fresh RPMI1640 media without fetal bovine serum added. For the positive controls of the assay, 3 wells were stimulated with LPS (1 ng/µL) diluted in the same volume and media used for the drugs stimulation. Two different concentrations (2 and 4 µg/mL) were evaluated for each molecule, which were determined to be non-cytotoxic through a cell viability assay. After a 24 h period, the supernatant was removed and used in the cytokine quantification assay. A kit for inflammatory cytokines, BD® Cytometric Bead Array CBA Human Inflammatory, was employed for this assay, containing the following human cytokines: IL-8, IL-1β, IL-6, and TNF. […]

The subject of a further series is TNF. Put plainly: Anti-inflammatory assay, TNF in LPS-stimulated THP-1 cells (CBA). The series is classed as cell-based, human. As for the experimental part:
For this assay, THP-1 (BCRJ cód. 0234) cells were cultured in Roswell Park Memorial Institute (RPMI-1640, Sigma-Aldrich; Saint Louis, MO, USA) media supplemented with 2 mM L-glutamine, 1 mM sodium pyruvate, 1.50 g/L of sodium bicarbonate, and 10% fetal bovine serum. For obtaining Macrophage-like cells, 250,000 cells per well were plated in a 24-well cell culture plate. A total of 20 ng/mL of Forbol 12-miristato-13-acetato (PMA) was added to each well, and the cells were incubated for 48 h at 37 °C with 5% CO2. After the 48 h, the wells were washed with 1X PBS, and fresh RPMI-1640 media was added. The cells were then incubated for 24 h at 37 °C and 5% CO2. For the cell’s stimulations, after the 24 h, the well was washed with PBS and fresh RPMI1640 media without fetal bovine serum added. For the positive controls of the assay, 3 wells were stimulated with LPS (1 ng/µL) diluted in the same volume and media used for the drugs stimulation. Two different concentrations (2 and 4 µg/mL) were evaluated for each molecule, which were determined to be non-cytotoxic through a cell viability assay. After a 24 h period, the supernatant was removed and used in the cytokine quantification assay. A kit for inflammatory cytokines, BD® Cytometric Bead Array CBA Human Inflammatory, was employed for this assay, containing the following human cytokines: IL-8, IL-1β, IL-6, and TNF. Standard cytokines were prepared in 9 different concentrations: 1:256, 1:128, 1:64, 1:32, 1:16, 1:8, 1:4, 1:2, and 1:1 (“top standard”). Analysis was performed using a Flow Cytometer FACS Aria Fusion BD (Bioscence, Houston, TX, USA). Data analysis was conducted using Prism software (version 10.4.1).

A short description of a further series: Kinetic solubility. Format: physicochemical. As for the experimental part: To determine kinetic solubility, stock solutions of test compounds and controls [Amiodarone hydrochloride (Sigma-Aldrich, St. Louis, MO, USA), Diclofenac (Oakwood Chemical, Estill, SC, USA), Chloramphenicol (Sigma-Aldrich, St. Louis, MO, USA), and Itraconazole (Sigma-Aldrich, St. Louis, MO, USA)] were prepared at 10 mM in DMSO. A volume of 5 µL from each stock solution was transferred to designated wells of a 96-well incubation plate in duplicate. Subsequently, 195 µL of phosphate-buffered saline (PBS) at pH 7.4 or 2.0 was added to achieve a final compound concentration of 250 µM (final DMSO concentration ≤ 2.5%). The plate was sealed and subjected to shaking at 200 rpm for 24 ± 1 h at room temperature (25 °C). Following the incubation period, the plate was centrifuged at 3000 rpm for 15 min at 25 °C to remove precipitates. A 100 µL aliquot of the supernatant from each well was transferred to a corresponding well in a new 96-well plate. The samples were subsequently analyzed by an LCMS-8045 system (Shimazu, Kyoto, Japan). To quantify the solubilized fraction, a calibration curve was prepared for each test compound and control. From the 10 mM stock solution, an intermediate standard solution (0.5 mM) was prepared in a 1:1 acetonitrile:water mixture. Serial dilutions of this intermediate solution were performed to obtain final concentrations of 50, 40, 20, 2, and 1 µM. […]

For the next series, the system named is SCC-25 cells. The experiment in a line: Microscopy of cells after incubation with compound. The series is classed as cell-based, human. The following applies: 24 h of incubation, 9.45 μM, SCC-25 vs NOK-si.
A short description of series [1]: Parallel artificial membrane permeability assay (PAMPA). The series is classed as in vitro ADME. The procedure: The parallel artificial membrane permeability assay (PAMPA) was performed using a 96-well pre-coated PAMPA plate system (Corning, Bedford, MA, USA). Solutions of test compounds and controls [metoprolol (Sigma-Aldrich, St. Louis, MO, USA) and nadolol (Sigma-Aldrich, St. Louis, MO, USA)] were prepared by diluting 10 mM stock solutions in DMSO with phosphate-buffered saline (PBS) at pH 6.5 to obtain a final concentration of 10 μM (final DMSO concentration ≤ 1%). The donor compartment was loaded with 300 μL of the prepared compound solutions, while the acceptor compartment received 200 μL of PBS pH 7.4. The plate was then assembled, and the system was incubated at 37 °C, with shaking at 100 rpm for 5 h. Samples of the initial donor solution (T0) were collected (10 μL) and transferred to an analysis plate. A quenching solution [10% water and 90% methanol: acetonitrile (50:50) + 50 nM tolbutamide (Sigma-Aldrich, St. Louis, MO, USA) as internal standard] was added (300 μL), along with 60 μL of PBS buffer pH 6.5. The analysis plate was stored at −20 °C. At the end of the incubation period, samples were collected from the donor and acceptor compartments and added to the analysis plate, following the same quenching procedure. The final concentrations of the compounds in the donor, acceptor, and T0 wells were quantified by an LCMS-8045 system (Shimazu, Kyoto, Japan). […]

Take `COc1cccc(C(=O)/C=C/c2cccc(B(O)O)c2)c1` [Compound 5, (E)-(3-(3-(3-methoxyphenyl)-3-oxoprop-1-en-1-yl)phenyl)boronic acid]: the “reduction of IL-6 levels” value with IL-6 is reported as “significantly reduced; also recorded: pronounced reduction”. Further, the “TNF levels relative to untreated THP-1 cells” value in the series on TNF (7.1 μM) is listed as “reducing them below those of untreated THP-1 cells”. In addition, in the series with TNF (2 and 4 µg/mL, 24 h), the “reduction of TNF levels” value is given as “significantly reduced; also recorded: pronounced reduction”. Also, the solubility class result in the series “Kinetic solubility” (kinetic solubility pH 7.4) is reported as “moderate-to-high solubility”. Besides, the solubility at 24 h in the series “Kinetic solubility” (phosphate-buffered saline, aqueous buffer, kinetic from dmso stock, PBS pH 7.4, 24 h, 25 °C, read-out: Kinect Solubility (KS) pH = 7.4) is more than 39.6 µg/mL. For the same compound, in the series with SCC-25 cells, the morphological alterations result is “morphological alterations suggesting cell death features”. Also, in series [1], the permeability class entry is given as “high passive permeability”. Besides, in series [1] (donor pH 6.5, acceptor pH 7.4, 5 h, 37 °C, read-out: PAMPA (Mean Pe)), the Papp at 5 h, 10 μM was found to be 17.5 ×10⁻⁶ cm/s.

For the origin of these results see PMC12301034, “Design and Synthesis of Boronic Chalcones with Dual Anticancer and Anti-Inflammatory Activity” (Molecules, 2025).
